Patent US7300930B2, “Therapeutic acridone and acridine compounds” (Cancer Research Technology Limited, priority 2000, dated 2007)

What was measured:
[1] = molecular target: telomerase (Homo sapiens, UniProt O14746); experiment: Modified telomeric repeat amplification protocol (TRAP) assay, cell-free; format: biochemical; conditions: extracts from A2780 cells, tested as salts, read-out: telIC50 (Telomerase Inhibitory Activity)
Protocol: The ability of compounds to inhibit telomerase in a cell-free assay was assessed with a modified TRAP assay using extracts from exponentially growing A2780 human ovarian carcinoma cells. The TRAP assay was performed in 2 steps: (a) telomerase-mediated extension of the forward primer (TS: 5′-AATCCGTCGAGCAGAGTT (SEQ ID NO:3), Oswel Ltd., Southampton, UK) contained in a 40 µL reaction mix comprising TRAP buffer (20 mM Tris-HCl (pH 8.3), 68 mM KCl, 1.5 mM MgCl2, 1 mM EGTA, 0.05% v/v Tween 20), 0.05 μg bovine serum albumin, 50 μM of each deoxynucleotide triphosphate, 0.1 μg TS primer, and 3 μCi of [α-^32P]dCTP (Amersham plc, UK). Protein (40 ng or 20 ng) was then incubated with the reaction mix+agent (acid addition and quaternary dimethiodide salts) at final concentrations of up to 50 μM for 20 min at 25° C. A lysis buffer (no protein) control, heat-inactivated protein control, and 50% protein (20 ng or 10 ng) control were included in each assay; and (b) while heating at 80° C. in a PCR block of a thermal cycler (Hybaid, UK) for 5 min to inactivate telomerase activity, 0.1 μg of reverse CX primer (3′-[…]-5′ (SEQ ID NO:4)) and 2 Units of Taq DNA polymerase (“red hot”, Advanced Biotechnologies) were added. A 3-step PCR was then performed: 94° C. for 30 s, 50° C. for 30 s, and 72° C. for 1 min for 31 cycles. Telomerase-extended PCR products in the presence or absence of compounds were then determined either by electrophoretic separation using 8% w/w acrylamide denaturing gels and analysis by phosphorimaging or autoradiography, or by harvesting on Whatman filters (25 mm glass microfibre) and analysis by liquid scintillation counting.

[2] = Growth inhibition, sulforhodamine B (SRB) assay, A2780; format: cell-based; conditions: human, A2780 ovarian carcinoma cells, A2780, 96 hr incubation, tested as salts, read-out: Cytotoxicity - IC50 A2780
Protocol: (§1) Growth inhibition was measured in three human ovarian carcinoma cell lines (A2780, CH1, and SKOV-3) and one human cervix carcinoma cell line (A431) using the sulforhodamine B (SRB) assay. Briefly, between 3000 and 6000 cells were seeded into the wells of 96-well microtiter plates and allowed to attach overnight. Compounds (acid addition and quaternary dimethiodide salts) were dissolved at 500 μM in water and immediately added to wells in quadruplicate at final concentrations of 0.05, 0.25, 1, 5 and 25 μM. Following an incubation period of 96 hr, remaining cells were fixed with ice-cold 10% w/v trichloroacetic acid (30 min) and stained with 0.4% SRB in 1% v/v acetic acid (15 min). Mean absorbance at 540 nm for each drug concentration was expressed as a percentage of the control untreated well absorbance, and IC50 values (concentration required to inhibit cell growth by 50%) were determined for each agent.

[3] = Growth inhibition, sulforhodamine B (SRB) assay, CH1; format: cell-based; conditions: human, CH1 ovarian carcinoma cells, CH1, 96 hr incubation, tested as salts, read-out: Cytotoxicity - IC50 CH1
Protocol: as §1

[4] = Growth inhibition, sulforhodamine B (SRB) assay, SKOV-3; format: cell-based; conditions: human, SKOV-3 ovarian carcinoma cells, SKOV-3, 96 hr incubation, tested as salts, read-out: Cytotoxicity - IC50 SKOV-3
Protocol: as §1

[5] = Growth inhibition, sulforhodamine B (SRB) assay, A431; format: cell-based; conditions: human, A431 cervix carcinoma cells, A431, 96 hr incubation, tested as salts, read-out: Cytotoxicity - IC50 A431
Protocol: as §1

[6] = test system: human telomerase; conditions: as described by Read et al., April 2001; cited from earlier work

Sequence of telomerase (O14746 whole entry): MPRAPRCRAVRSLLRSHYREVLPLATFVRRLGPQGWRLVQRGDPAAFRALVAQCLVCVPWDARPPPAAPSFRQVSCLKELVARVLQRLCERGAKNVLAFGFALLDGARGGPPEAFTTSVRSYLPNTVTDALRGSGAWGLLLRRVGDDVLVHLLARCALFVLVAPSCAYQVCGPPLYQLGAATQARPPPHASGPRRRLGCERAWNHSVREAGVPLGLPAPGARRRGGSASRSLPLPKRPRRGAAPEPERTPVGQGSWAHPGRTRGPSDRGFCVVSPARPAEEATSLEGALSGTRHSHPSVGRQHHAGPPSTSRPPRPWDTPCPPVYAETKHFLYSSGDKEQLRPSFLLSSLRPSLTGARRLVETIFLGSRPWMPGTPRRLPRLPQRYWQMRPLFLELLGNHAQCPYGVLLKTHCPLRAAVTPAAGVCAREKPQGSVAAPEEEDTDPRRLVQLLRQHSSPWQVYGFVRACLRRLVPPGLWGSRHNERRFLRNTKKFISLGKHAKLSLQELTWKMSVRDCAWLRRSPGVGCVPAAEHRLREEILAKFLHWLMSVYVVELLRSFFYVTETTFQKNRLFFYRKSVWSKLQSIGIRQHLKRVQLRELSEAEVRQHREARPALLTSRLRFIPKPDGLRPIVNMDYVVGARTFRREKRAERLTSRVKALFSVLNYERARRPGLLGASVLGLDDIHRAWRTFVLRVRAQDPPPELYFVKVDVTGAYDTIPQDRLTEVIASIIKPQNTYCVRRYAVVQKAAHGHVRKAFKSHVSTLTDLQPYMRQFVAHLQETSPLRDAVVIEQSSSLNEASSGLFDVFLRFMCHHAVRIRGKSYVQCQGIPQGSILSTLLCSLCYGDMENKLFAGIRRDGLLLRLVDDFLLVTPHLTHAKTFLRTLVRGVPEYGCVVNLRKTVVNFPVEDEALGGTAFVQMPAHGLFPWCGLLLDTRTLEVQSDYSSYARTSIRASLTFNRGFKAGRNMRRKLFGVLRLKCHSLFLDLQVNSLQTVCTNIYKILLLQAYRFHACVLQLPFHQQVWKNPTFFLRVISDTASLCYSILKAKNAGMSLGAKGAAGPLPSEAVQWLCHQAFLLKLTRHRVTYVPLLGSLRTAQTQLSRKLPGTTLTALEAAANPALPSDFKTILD

Row | IC50 [1] [nM] | Compound | IC50 at 96 h [2] [µM] | IC50 at 96 h [3] [µM] | IC50 at 96 h [4] [µM] | IC50 at 96 h [5] [µM] | in vitro inhibitory activity against human telomerase [6]
1 | 20 | Nc1ccccc1Nc1c2ccc(NC(=O)CCN3CCCC3)cc2nc2cc(NC(=O)CCN3CCCC3)ccc12 [JH-ACI-76, N-[9-(2′-(Amino)phenylamino)]-3,6-bis(3-pyrrolidinopropionamido)acridine] | 11 | 10 | 15.8 | 7.1 | 
2 | 50 | O=C(CCN1CCCC1)Nc1ccc2c(NCCN3CCCCC3)c3ccc(NC(=O)CCN4CCCC4)cc3nc2c1 [JH-ACI-69, N-[9-(2-Piperidin-1-yl-ethylamino)]-3,6-bis(3-pyrrolidinopropionamido)acridine] | 12.6 | > 25 | > 25 | 11.2 | 
3 | 18 | CN1CCCC1CCNc1c2ccc(NC(=O)CCN3CCCC3)cc2nc2cc(NC(=O)CCN3CCCC3)ccc12 (stereo not shown) [SB-ACI-12, N-{9-[2-(2′-Aminoethyl)-1-methylpyrrolidino]}-3,6-bis(3-pyrrolidinopropionamido)acridine] | > 25 | > 25 | > 25 | ≥ 25 | 
4 | 90 | O=C(CCN1CCCC1)Nc1ccc2c(NC3CCCCC3)c3ccc(NC(=O)CCN4CCCC4)cc3nc2c1 [JH-ACI-82, N-[9-(Cyclohexylamino)]-3,6-bis(3-pyrrolidinopropionamido)acridine] | 12.5 | 2.8 | 1.1 | 2.5 | 
5 | 40 | CC(=O)c1ccc(Nc2c3ccc(NC(=O)CCN4CCCC4)cc3nc3cc(NC(=O)CCN4CCCC4)ccc23)cc1 [JH-ACI-90, N-[9-(4′-Acetylphenylamino)]-3,6-bis(3-pyrrolidinopropionamido)acridine] | 3.2 | 1.8 | 3.4 | 2.2 | 
6 | 12 | O=C(CCN1CCCC1)Nc1ccc(Nc2c3ccc(NC(=O)CCN4CCCC4)cc3nc3cc(NC(=O)CCN4CCCC4)ccc23)cc1 [JC-ACI-9, N-{9-[4′-(3-Pyrrolidin-1-yl-propionylamino)-phenylamino]}-3,6-bis(3-pyrrolidinopropionamido)acridine] | > 25 | 20 | > 25 | 20 | 
7 | 100 | CC(=O)Nc1cccc(Nc2c3ccc(NC(=O)CCN4CCCC4)cc3nc3cc(NC(=O)CCN4CCCC4)ccc23)c1 [SB-ACI-14, N-{9-[(3′-Acetamido)aminophenyl]}-3,6-bis(3-pyrrolidinopropionamido)acridine] | > 25 | > 25 | > 25 | > 25 | 
8 | 140 | CN(C)c1ccc(Nc2c3ccc(NC(=O)CCN4CC5(C)CC4CC(C)(C)C5)cc3nc3cc(NC(=O)CCN4CC5(C)CC4CC(C)(C)C5)ccc23)cc1 [JH-ACI-103, N-{9-[4′-(N,N-Dimethylamino)phenylamino]}-3,6-bis[(1,3,3-trimethyl-6-azabicyclo[3.2.1]-octanamino)propionamido]-acridine] | 1 | 3.2 | 2 | 2.5 | 
9 | 95 | CN(C)c1ccc(Nc2c3ccc(NC(=O)CCN4CCCC4)cc3nc3cc(NC(=O)CCN4CCCC4)ccc23)cc1 [BR-ACO-19, N-{9-[4′-(N,N-Dimethylamino)phenylamino]}-3,6-bis(3-pyrrolidinopropionamido)acridine] | 10 | 10.1 | 13 | 15.8 | potent in vitro inhibitory activity
